# Measured values: patent US4508663A, “Process for preparing thiosulfenamide derivatives of N-phosphonomethylglycinonitriles” (Monsanto Company, priority 1983, dated 1985)
# Columns and labels:
# Experiment in all cases: post-emergence herbicidal activity, greenhouse
# Assay type in all cases: in vivo
# Quackgrass = details: Table I, 4 WAT
# Summary of the method: (§1)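 Plants grown from seed or perennial propagules in greenhouse soil pans were sprayed at two to three weeks with compound solution or suspension containing about 0.4% emulsifier, at the stated application rates. Injury relative to untreated controls was scored at approximately two and four weeks after treatment on a post-emergence activity index.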
# Sorghum = details: Table II, 4 WAT
# Summary of the method: as §1
# Wheat = details: Table II, 4 WAT
# Summary of the method: as §1
# Canada Thistle = details: Table I, 4 WAT
# Summary of the method: as §1
# Hemp Sesbania = details: Table II, 4 WAT
# Summary of the method: as §1
# Rice = details: Table II, 4 WAT
# Summary of the method: as §1
# Lambsquarters = details: 4 WAT
# Summary of the method: as §1
# Sugar Beet = details: Table II, 4 WAT
# Summary of the method: as §1
# Downy Brome = details: 4 WAT
# Summary of the method: as §1
# Johnsongrass = details: Table I, 4 WAT
# Summary of the method: as §1
# Soybean = details: Table II, 4 WAT
# Summary of the method: as §1
# Morningglory = details: 4 WAT
# Summary of the method: as §1
# Wild Buckwheat = details: Table II, 4 WAT
# Summary of the method: as §1
# Panicum Spp = details: Table II, 4 WAT
# Summary of the method: as §1
# Yellow Nutsedge = details: Table I, 4 WAT
# Summary of the method: as §1
# Cocklebur = details: 4 WAT
# Summary of the method: as §1
# Velvetleaf = details: 4 WAT
# Summary of the method: as §1
# Barnyardgrass = details: 4 WAT
# Summary of the method: as §1
# Crabgrass = details: Table II, 4 WAT
# Summary of the method: as §1
# Smartweed = details: 4 WAT
# Summary of the method: as §1
smiles,measurement,setting,value
"CC(C)CCSSN(CC#N)CP(=O)(Oc1ccccc1)Oc1ccccc1 [V, Phosphonic acid, [[(cyanomethyl)[(3-methylbutyl)-dithio]amino]methyl]-, diphenyl ester]",post-emergence herbicidal activity index,Quackgrass; 5.6 kg/h,1 (25-49% control)
same,post-emergence herbicidal activity index,Quackgrass; 11.2 kg/h,2 (50-74% control)
same,post-emergence herbicidal activity index,Sorghum; 1.12 kg/h,2 (50-74% control)
same,post-emergence herbicidal activity index,Sorghum; 5.6 kg/h,3 (75-99% control)
same,post-emergence herbicidal activity index,Wheat; 1.12 kg/h,0 (0-24% control)
same,post-emergence herbicidal activity index,Wheat; 5.6 kg/h,1 (25-49% control)
same,post-emergence herbicidal activity index,Canada Thistle; 5.6 kg/h,2 (50-74% control)
same,post-emergence herbicidal activity index,Canada Thistle; 11.2 kg/h,1 (25-49% control)
same,post-emergence herbicidal activity index,Hemp Sesbania; 1.12 kg/h,0 (0-24% control)
same,post-emergence herbicidal activity index,Hemp Sesbania; 5.6 kg/h,1 (25-49% control)
same,post-emergence herbicidal activity index,Rice; 1.12 kg/h,0 (0-24% control)
same,post-emergence herbicidal activity index,Rice; 5.6 kg/h,1 (25-49% control)
same,post-emergence herbicidal activity index,"Lambsquarters; Table I, 5.6 kg/h",4 (100% control)
same,post-emergence herbicidal activity index,"Lambsquarters; Table I, 11.2 kg/h",3 (75-99% control)
same,post-emergence herbicidal activity index,"Lambsquarters; Table II, 1.12 kg/h",1 (25-49% control)
same,post-emergence herbicidal activity index,"Lambsquarters; Table II, 5.6 kg/h",3 (75-99% control)
same,post-emergence herbicidal activity index,Sugar Beet; 1.12 kg/h,1 (25-49% control)
same,post-emergence herbicidal activity index,Sugar Beet; 5.6 kg/h,1 (25-49% control)
same,post-emergence herbicidal activity index,"Downy Brome; Table I, 5.6 kg/h",2 (50-74% control)
same,post-emergence herbicidal activity index,"Downy Brome; Table I, 11.2 kg/h",2 (50-74% control)
same,post-emergence herbicidal activity index,"Downy Brome; Table II, 1.12 kg/h",2 (50-74% control)
same,post-emergence herbicidal activity index,"Downy Brome; Table II, 5.6 kg/h",2 (50-74% control)
same,post-emergence herbicidal activity index,Johnsongrass; 5.6 kg/h,1 (25-49% control)
same,post-emergence herbicidal activity index,Johnsongrass; 11.2 kg/h,3 (75-99% control)
same,post-emergence herbicidal activity index,Soybean; 1.12 kg/h,1 (25-49% control)
same,post-emergence herbicidal activity index,Soybean; 5.6 kg/h,2 (50-74% control)
same,post-emergence herbicidal activity index,"Morningglory; Table I, 5.6 kg/h",2 (50-74% control)
same,post-emergence herbicidal activity index,"Morningglory; Table I, 11.2 kg/h",2 (50-74% control)
same,post-emergence herbicidal activity index,"Morningglory; Table II, 1.12 kg/h",1 (25-49% control)
same,post-emergence herbicidal activity index,"Morningglory; Table II, 5.6 kg/h",2 (50-74% control)
same,post-emergence herbicidal activity index,Wild Buckwheat; 1.12 kg/h,0 (0-24% control)
same,post-emergence herbicidal activity index,Wild Buckwheat; 5.6 kg/h,1 (25-49% control)
same,post-emergence herbicidal activity index,Panicum Spp; 1.12 kg/h,0 (0-24% control)
same,post-emergence herbicidal activity index,Panicum Spp; 5.6 kg/h,1 (25-49% control)
same,post-emergence herbicidal activity index,Yellow Nutsedge; 5.6 kg/h,2 (50-74% control)
same,post-emergence herbicidal activity index,Yellow Nutsedge; 11.2 kg/h,2 (50-74% control)
same,post-emergence herbicidal activity index,"Cocklebur; Table I, 5.6 kg/h",2 (50-74% control)
same,post-emergence herbicidal activity index,"Cocklebur; Table I, 11.2 kg/h",3 (75-99% control)
same,post-emergence herbicidal activity index,"Cocklebur; Table II, 1.12 kg/h",1 (25-49% control)
same,post-emergence herbicidal activity index,"Cocklebur; Table II, 5.6 kg/h",3 (75-99% control)
same,post-emergence herbicidal activity index,"Velvetleaf; Table I, 5.6 kg/h",1 (25-49% control)
same,post-emergence herbicidal activity index,"Velvetleaf; Table I, 11.2 kg/h",0 (0-24% control)
same,post-emergence herbicidal activity index,"Velvetleaf; Table II, 1.12 kg/h",0 (0-24% control)
same,post-emergence herbicidal activity index,"Velvetleaf; Table II, 5.6 kg/h",2 (50-74% control)
same,post-emergence herbicidal activity index,"Barnyardgrass; Table I, 5.6 kg/h",2 (50-74% control)
same,post-emergence herbicidal activity index,"Barnyardgrass; Table I, 11.2 kg/h",3 (75-99% control)
same,post-emergence herbicidal activity index,"Barnyardgrass; Table II, 1.12 kg/h",1 (25-49% control)
same,post-emergence herbicidal activity index,"Barnyardgrass; Table II, 5.6 kg/h",3 (75-99% control)
same,post-emergence herbicidal activity index,Crabgrass; 1.12 kg/h,1 (25-49% control)
same,post-emergence herbicidal activity index,Crabgrass; 5.6 kg/h,3 (75-99% control)
same,post-emergence herbicidal activity index,"Smartweed; Table I, 5.6 kg/h",1 (25-49% control)
same,post-emergence herbicidal activity index,"Smartweed; Table I, 11.2 kg/h",3 (75-99% control)
same,post-emergence herbicidal activity index,"Smartweed; Table II, 1.12 kg/h",0 (0-24% control)
same,post-emergence herbicidal activity index,"Smartweed; Table II, 5.6 kg/h",1 (25-49% control)
